Where two headings read alike, the source gives them in different places.
Experiments:
E. coli = type: cell-based; details: 6-millimeter disc, 10 microliters, 24 hours
Description: (§1) A second sample of a dendrimer silver complex was tested against various concentrations of silver nitrate against both E. coli and Pseudomonas aerugentoas. The experiment was performed as follows: • 1. Prepare an inoculum of the test organisms by streaking the entire surface of agar plates, by the standard method for colony isolation, with ether E. coli or pseudomonas aerugentoas. The plates were incubated at 370 C for approximately 18 hours. • 2. Harvest all the growth on the test organism plates by flooding the plats with 9.0 ml of sterile distilled water per plate. Wash the harvested biomass by centrifugation for 1 hour at 3000 rpm, discarding the supernatant fluid, and resuspending in 9.0 ml of sterile distilled water. Resuspend harvested cell by vortex agitation for 1 minute. • 3. Inoculate test plates with 0.2 ml with the test organism prepare as described above. • 4. Place sterile 6-millimeter blank paper Discs on test plates and saturate with 10 microliters of the test substances. • 5. […]

Pseudomonas aerugentoas = test: Paper disc zone of inhibition test (Example Two); type: cell-based; details: 6-millimeter disc, 10 microliters, 24 hours
Description: as §1

O=[N+]([O-])[O-].[Ag+] [Silver Nitrate]
E. Coli (diameter of inhibitory zone) (E. coli; 0.5% Silver Nitrate): 6 millimeters
E. Coli (diameter of inhibitory zone) (E. coli; 1.0% Silver Nitrate): 6 millimeters
E. Coli (diameter of inhibitory zone) (E. coli; 2.5% Silver Nitrate): 6 millimeters
E. Coli (diameter of inhibitory zone) (E. coli; 5.0% Silver Nitrate): 6 millimeters
E. Coli (diameter of inhibitory zone) (E. coli; 7.5% Silver Nitrate): 6 millimeters
E. Coli (diameter of inhibitory zone) (E. coli; 10.0% Silver Nitrate): 6 millimeters
Pseudomonas (diameter of inhibitory zone) (Pseudomonas aerugentoas; 0.5% Silver Nitrate): 12 millimeters
Pseudomonas (diameter of inhibitory zone) (Pseudomonas aerugentoas; 1.0% Silver Nitrate): 9 millimeters
Pseudomonas (diameter of inhibitory zone) (Pseudomonas aerugentoas; 2.5% Silver Nitrate): 6 millimeters
Pseudomonas (diameter of inhibitory zone) (Pseudomonas aerugentoas; 5.0% Silver Nitrate): 6 millimeters
Pseudomonas (diameter of inhibitory zone) (Pseudomonas aerugentoas; 7.5% Silver Nitrate): 7 millimeters
Pseudomonas (diameter of inhibitory zone) (Pseudomonas aerugentoas; 10.0% Silver Nitrate): 11 millimeters

Reference: US7507335B2, “Dendrimer fluid purification agent and article” (KWG Technology, priority 2003, dated 2009)
